# According to patent US20220380341A1, “INHIBITORS OF HIV-1 NEF FOR THE TREATMENT OF HIV DISEASE” (priority 2018, published 2022):
# Read-outs that look alike come from different tables or passages of the source.
# Assays:
# HIV-1 NefNL4-3 = HIV-1 NefNL4-3 (Human immunodeficiency virus type 1 group M subtype B, UniProt P03406, A33V/T15A/T51N/V11I); experiment: Surface plasmon resonance binding to recombinant full-length Nef (NL4-3); settings: for Nef NL4-3 Binding, SPR 1:1 or 2-site fitting KD1: 1:1 Langmuir fit where the KD2 cell says '1 to 1 fitting', else 2-site fit
# HIV-1NL4-3 = experiment: HIV-1 infectivity assay in TZM-bl reporter cell line (LTR-luciferase, 48 h); assay type: cell-based; settings: Human immunodeficiency virus 1, TZM-bl, 48 h, Table 1; TZM-bl cells, 1 μM, 48 h; 100% = Nef-defective HIV-1; read-out: HIV-1 Infectivity % Inhibition Norm. to Δ-Nef @ 1 μM
# Description: (§1) In particular, the tables show antiretroviral activity as percent inhibition of HIV-1 infectivity at 1 μM. In brief, this assay uses the TZM-bl reporter cell line, which carries a stable copy of the HIV-1 LTR coupled to luciferase. Cells are infected with HIV-1NL4-3 in the presence and absence of each compound, and luciferase activity is measured 48 h later. This assay measures early events in the HIV-1 life cycle, including viral entry, reverse transcription, nuclear entry and integration, and viral transcription. All assays include control cells infected with Nef-defective HIV-1, which replicates at 30-50% of wild-type in this system. Results are normalized to percent inhibition relative to DMSO-treated control cells infected with wild-type HIV-1 (0% inhibition) and DMSO-treated cells infected with Nef-defective HIV-1 (100% of the Nef-dependent effect)—see column 3. In addition, cell viability is measured in the TZM-bl cell line in the presence of each test compound and in the absence of HIV-1 infection, using the Cell Titer Blue cell viability assay (Promega; column 4).
# TZM-bl cell line = assay type: cell-based; settings: for % Cell Viability: 1.0 μM, uninfected TZM-bl, CellTiter-Blue, Table 4
# Description: as §1
# [1] = Nef NL4-3 Binding, SPR 1:1 or 2-site fitting KD2, Table 1, 2-site fit, second component
# [2] = read-out: Nef NL4-3 Binding, SPR 1:1 or 2-site fitting KD2, Table 1, 2-site fit, second component
# [3] = Table 1, 2-step induced-fit model, read-out: Nef NL4-3 Binding, SPR 2-state fitting KD
# [4] = read-out: Nef NL4-3 Binding, SPR 1:1 or 2-site fitting KD1
# [5] = Table 2, uninfected TZM-bl cells, 1 μM, Cell Titer Blue
smiles,measurement,setting,value
"Oc1c(CCc2ccc(F)cc2)c(-c2cnccn2)nn1-c1nc2ccccc2[nH]1 [Compound I-103, 1-(1H-1,3-benzodiazol-2-yl)-4-[2-(4-fluorophenyl)ethyl]-3-(pyrazin-2-yl)-1H-pyrazol-5-ol]",Kd,HIV-1 NefNL4-3; [1],25400 nM
"Cc1ccc(-c2nn(-c3nc4ccccc4[nH]3)c(O)c2CCc2ccc(F)cc2)cc1 [Compound I-104, 1-(1H-1,3-benzodiazol-2-yl)-4-[2-(4-fluorophenyl)ethyl]-3-(4-methylphenyl)-1H-pyrazol-5-ol]",Kd,HIV-1 NefNL4-3,2370 nM
same,Kd,HIV-1 NefNL4-3; [1],2260 nM
"Oc1c(CCc2ccc(F)cc2)c(-c2ccccn2)nn1-c1nc2ccccc2[nH]1 [Compound I-109, 1-(1H-1,3-benzodiazol-2-yl)-4-[2-(4-fluorophenyl)ethyl]-3-(pyridin-2-yl)-1H-pyrazol-5-ol]",Kd,HIV-1 NefNL4-3,36.2 nM
"Oc1c(CCc2ccc(F)c(F)c2)c(-c2cnccn2)nn1-c1nc2ccccc2[nH]1 [Compound I-111, 1-(1H-1,3-benzodiazol-2-yl)-4-[2-(3,4-difluorophenyl)ethyl]-3-(pyrazin-2-yl)-1H-pyrazol-5-ol]","Nef NL4-3 Binding, SPR 1:1 or 2-site fitting KD1",HIV-1 NefNL4-3; Table 1,No Interaction
"Oc1c(CCc2ccc(F)c(Cl)c2)c(-c2cnccn2)nn1-c1nc2ccccc2[nH]1 [Compound I-112, 1-(1H-1,3-benzodiazol-2-yl)-4-[2-(3-chloro-4-fluorophenyl)ethyl]-3-(pyrazin-2-yl)-1H-pyrazol-5-ol]","Nef NL4-3 Binding, SPR 1:1 or 2-site fitting KD1",HIV-1 NefNL4-3; Table 1,No Interaction
"Oc1c(CCc2ccc(F)cc2)c(-c2ccncc2)nn1-c1nc2ccccc2[nH]1 [Compound I-113, 1-(1H-1,3-benzodiazol-2-yl)-4-[2-(4-fluorophenyl)ethyl]-3-(pyridin-4-yl)-1H-pyrazol-5-ol]",Kd,HIV-1 NefNL4-3,3350 nM
"C=CCc1c(-c2ccc(C(F)(F)F)cc2)nn(-c2nc3ccccc3[nH]2)c1O [Compound I-115, 1-(1H-1,3-benzodiazol-2-yl)-4-(prop-2-en-1-yl)-3-[4-(trifluoromethyl)phenyl]-1H-pyrazol-5-ol]",Kd,HIV-1 NefNL4-3,687 nM
same,Kd,HIV-1 NefNL4-3; [2],5700 nM
"Oc1c(CCc2ccc(F)cc2)c(-c2cccc(Cl)c2)nn1-c1nc2ccccc2[nH]1 [Compound I-116, 1-(1H-1,3-benzodiazol-2-yl)-3-(3-chlorophenyl)-4-[2-(4-fluorophenyl)ethyl]-1H-pyrazol-5-ol]",Kd,HIV-1 NefNL4-3,2010 nM
"Oc1c(CCc2ccc(F)cc2)c(-c2ccccc2Cl)nn1-c1nc2ccccc2[nH]1 [Compound I-117, 1-(1H-1,3-benzodiazol-2-yl)-3-(2-chlorophenyl)-4-[2-(4-fluorophenyl)ethyl]-1H-pyrazol-5-ol]",Kd,HIV-1 NefNL4-3,1710 nM
same,Kd,HIV-1 NefNL4-3; [2],24700 nM
"Oc1c(CCc2ccc(F)cc2)c(CCCc2ccc(F)cc2)nn1-c1nc2ccccc2[nH]1 [Compound I-120, 1-(1H-1,3-benzodiazol-2-yl)-4-[2-(4-fluorophenyl)ethyl]-3-[3-(4-fluorophenyl)propyl]-1H-pyrazol-5-ol]",inhibition at 1 µM,HIV-1NL4-3,70.1%
same,Percent Viability @ 1 μM (TZM-bl cells),"TZM-bl cell line; human, 1 μM",89.1%
"O=C(OCc1ccccc1)N1CCC(c2nn(-c3nc4ccccc4[nH]3)c(O)c2Cc2ccc(F)c(F)c2)CC1 [Compound I-159, benzyl 4-[1-(1H-1,3-benzodiazol-2-yl)-4-[(3,4-difluorophenyl)methyl]-5-hydroxy-1H-pyrazol-3-yl]piperidine-1-carboxylate]",Kd,HIV-1 NefNL4-3,384 nM
"CC(C)(C)OC(=O)N1CCC(c2nn(-c3nc4ccccc4[nH]3)c(O)c2Cc2ccc(F)c(F)c2)CC1 [Compound I-203, tert-butyl 4-[1-(1H-1,3-benzodiazol-2-yl)-4-[(3,4-difluorophenyl)methyl]-5-hydroxy-1H-pyrazol-3-yl]piperidine-1-carboxylate]",Kd,HIV-1 NefNL4-3,821 nM
same,Kd,HIV-1 NefNL4-3; [2],45400 nM
"Oc1c(CCc2ccc(F)cc2)c(C2CCCNC2)nn1-c1nc2ccccc2[nH]1 (stereo not shown) [Compound I-502, 1-(1H-1,3-benzodiazol-2-yl)-4-[2-(4-fluorophenyl)ethyl]-3-(piperidin-3-yl)-1H-pyrazol-5-ol]",Kd,HIV-1 NefNL4-3; [3],4510 nM
same,Kd,HIV-1 NefNL4-3; [4],2450 nM
"Oc1c(CCc2ccc(F)cc2)c(C2CCNCC2)nn1-c1nc2ccccc2[nH]1 [Compound I-551, 1-(1H-1,3-benzodiazol-2-yl)-4-[2-(4-fluorophenyl)ethyl]-3-(piperidin-4-yl)-1H-pyrazol-5-ol]","Nef NL4-3 Binding, SPR 1:1 or 2-site fitting KD1",HIV-1 NefNL4-3; Table 1,No Interaction
CC(C)(C)OC(=O)N1CCC(CCc2c(-c3cccc(S(C)(=O)=O)c3)nn(-c3cc(C(F)(F)F)n[nH]3)c2O)CC1 [Compound I-605],% Cell Viability,TZM-bl cell line,100%
same,Percent Viability @ 1 μM (TZM-bl cells),TZM-bl cell line; [5],106.0%
CS(=O)(=O)c1ccc(-c2nn(-c3cc(C4CC4)n[nH]3)c(O)c2CCC2CCOCC2)cc1 [Compound I-607],Percent Viability @ 1 μM (TZM-bl cells),TZM-bl cell line,100.0%
CCOC(=O)c1ccc(CCc2c(-c3ccccc3)nn(-c3cc(C(F)(F)F)n[nH]3)c2O)cc1 [Compound I-612],% Cell Viability,TZM-bl cell line,100%
same,Percent Viability @ 1 μM (TZM-bl cells),TZM-bl cell line; [5],100.7%
Oc1c(CCc2ccncc2)c(-c2ccc(F)cc2)nn1-c1cc(C(F)(F)F)n[nH]1 [Compound I-620],Percent Viability @ 1 μM (TZM-bl cells),TZM-bl cell line,100.0%
"CC(=O)N1CCC(c2nn(-c3nc4ccccc4[nH]3)c(O)c2CCc2ccc(F)cc2)CC1 [Compound I-741, 1-{4-[1-(1H-1,3-benzodiazol-2-yl)-4-[2-(4-fluorophenyl)ethyl]-5-hydroxy-1H-pyrazol-3-yl]piperidin-1-yl}ethan-1-one]",Kd,HIV-1 NefNL4-3,3260 nM
same,Kd,HIV-1 NefNL4-3; [2],10600 nM
"CS(=O)(=O)N1CCC(c2nn(-c3nc4ccccc4[nH]3)c(O)c2CCc2ccc(F)cc2)CC1 [Compound I-743, 1-(1H-1,3-benzodiazol-2-yl)-4-[2-(4-fluorophenyl)ethyl]-3-(1-methanesulfonylpiperidin-4-yl)-1H-pyrazol-5-ol]","Nef NL4-3 Binding, SPR 1:1 or 2-site fitting KD1",HIV-1 NefNL4-3; Table 1,No Interaction
"CC(C)(C)OC(=O)N1CCCC(c2nn(-c3nc4ccccc4[nH]3)c(O)c2CCc2ccc(F)cc2)C1 (stereo not shown) [Compound I-755, tert-butyl 3-[1-(1H-1,3-benzodiazol-2-yl)-4-[2-(4-fluorophenyl)ethyl]-5-hydroxy-1H-pyrazol-3-yl]piperidine-1-carboxylate]",Kd,HIV-1 NefNL4-3; [3],296 nM
same,Kd,HIV-1 NefNL4-3; [4],52.7 nM
"CN1CCC(c2nn(-c3nc4ccccc4[nH]3)c(O)c2CCc2ccc(F)cc2)CC1 [Compound I-801, 1-(1H-1,3-benzodiazol-2-yl)-4-[2-(4-fluorophenyl)ethyl]-3-(1-methylpiperidin-4-yl)-1H-pyrazol-5-ol]","Nef NL4-3 Binding, SPR 1:1 or 2-site fitting KD1",HIV-1 NefNL4-3; Table 1,No Interaction
"Oc1c(CCc2ccc(F)cc2)c(C2CCN(c3ncccn3)CC2)nn1-c1nc2ccccc2[nH]1 [Compound I-903, 1-(1H-1,3-benzodiazol-2-yl)-4-[2-(4-fluorophenyl)ethyl]-3-[1-(pyrimidin-2-yl)piperidin-4-yl]-1H-pyrazol-5-ol]",Kd,HIV-1 NefNL4-3; [4],9980 nM
"Oc1c(Cc2ccc(F)c(F)c2)c(C2CCN(CC(F)(F)F)CC2)nn1-c1nc2ccccc2[nH]1 [Compound I-1001, 1-(1H-1,3-benzodiazol-2-yl)-4-[(3,4-difluorophenyl)methyl]-3-[1-(2,2,2-trifluoroethyl)piperidin-4-yl]-1H-pyrazol-5-ol]",Kd,"HIV-1 NefNL4-3; Table 1, 2-site fit, second component, read-out: Nef NL4-3 Binding, SPR 1:1 or 2-site fitting KD2",500 nM
same,Kd,HIV-1 NefNL4-3; [4],257 nM
Fc1ccc(-c2c(CCc3ccccc3)cnn2-c2cc(C(F)(F)F)n[nH]2)cc1 [Compound I-1501],% Cell Viability,TZM-bl cell line,97.9%
Fc1ccc(-c2nn(-c3cc(C(F)(F)F)n[nH]3)cc2CCc2ccccc2)cc1 [Compound I-1501],Percent Viability @ 1 μM (TZM-bl cells),TZM-bl cell line; [5],102.5%
